For the test, the target named is T1, Human BCL-XL protein (N-terminal HiBiT tagged BCL-XL in HT1080 cells) (Homo sapiens, UniProt Q07817).
T1 construct: expressed in transfected cells; host or cells: HT-1080 (ATCC CCL-121), stably transduced with lentivirus pLV-UBC-N-HiBiT-BCL-XL-PGK-puro and selected with puromycin
Nature of the test: HiBiT based degradation assay. The test is classed as cell-based. As to conditions: HT1080 cells expressing HiBiT-BCL-XL; for Ymin (24 h) / Ymin (6 h): BCL-XL degradation normalized with DMSO control; for DC50: BCL-XL degradation. Summed up: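 This HiBiT degradation assay measured loss of BCL-XL in HT1080 cells that stably express an N-terminal HiBiT-BCL-XL fusion delivered by lentivirus. Cells were added to compound-spotted 384-well plates, and luminescence was read on a PHERAstar FSX reader. Signal was expressed relative to DMSO controls, curves were fitted by four-parameter logistic regression, and for hook-shaped curves the Ymin point served as the bottom plateau when calculating EC50.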
In general terms: With HiBiT, luminescence reflects the tagged protein that the partner subunit can reach.

Where two headings read alike, the source gives them in different places. A value given as a limit tells only on which side of the number the result lay.

T1 sequence (Q07817 whole entry): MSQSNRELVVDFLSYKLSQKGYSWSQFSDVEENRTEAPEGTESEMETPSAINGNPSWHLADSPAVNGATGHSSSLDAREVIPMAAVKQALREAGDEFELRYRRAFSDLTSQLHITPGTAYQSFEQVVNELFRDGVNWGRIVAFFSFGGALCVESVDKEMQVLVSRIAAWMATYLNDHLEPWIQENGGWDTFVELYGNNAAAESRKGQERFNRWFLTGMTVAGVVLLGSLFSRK

With `Cc1cc(OCCCC2(C)CCN(CC(=O)Nc3ccc4c(C5CCC(=O)NC5=O)nn(C)c4c3)CC2)ccc1-c1ccc(N2CCc3cccc(C(=O)Nc4nc5ccccc5s4)c3C2)nc1C(=O)O` (centres unmarked) [Compound 264, 6-[8-(1,3-benzothiazol-2-ylcarbamoyl)-3,4-dihydro-1H-isoquinolin-2-yl]-3-[4-[3-[1-[2-[[3-(2,6-dioxo-3-piperidyl)-1-methyl-indazol-6-yl]amino]-2-oxo-ethyl]-4-methyl-4-piperidyl]propoxy]-2-methyl-phenyl]pyridine-2-carboxylic acid], where the note is “24 h”, the “Ymin (24 h)” value is on record as “A (Ymin < 50%)”. Further, for the setting “24 h, read-out: EC50 (24 h)”, the DC50 was below 0.1 µM.

In the case of `Cc1c(OCCCC2CCN(CC(=O)N3CCN(c4ccc5c(C6CCC(=O)NC6=O)nn(C)c5c4)CC3)CC2)cccc1-c1ccc(N2CCc3cccc(C(=O)Nc4nc5ccccc5s4)c3C2)nc1C(=O)O` (centres unmarked) [Compound 142, 6-(8-(benzo[d]thiazol-2-ylcarbamoyl)-3,4-dihydroisoquinolin-2(1H)-yl)-3-(3-(3-(1-(2-(4-(3-(2,6-dioxopiperidin-3-yl)-1-methyl-1H-indazol-6-yl)piperazin-1-yl)-2-oxoethyl)piperidin-4-yl)propoxy)-2-methylphenyl)picolinic acid], the “Ymin (6 h)” value (6 h) is “A (Ymin < 50%)”. Where the note is “24 h”, the “Ymin (24 h)” value was “A (Ymin < 50%)”. Further, the DC50 reads like this: (6 h, read-out: EC50 (6 h)) below 0.1 µM; (24 h, read-out: EC50 (24 h)) below 0.1 µM.

On to `Cc1c(O[C@H]2CC[C@H](CCC(=O)N3CCN(c4ccc5c(C6CCC(=O)NC6=O)nn(C)c5c4)CC3)CC2)cccc1-c1ccc(N2CCc3cccc(C(=O)Nc4nc5ccccc5s4)c3C2)nc1C(=O)O` (some centres unmarked) [Compound 138a, 6-(8-(benzo[d]thiazol-2-ylcarbamoyl)-3,4-dihydroisoquinolin-2(1H)-yl)-3-(3-(((1r,4r)-4-(3-(4-(3-(2,6-dioxopiperidin-3-yl)-1-methyl-1H-indazol-6-yl)piperazin-1-yl)-3-oxopropyl)cyclohexyl)oxy)-2-methylphenyl)picolinic acid], for which the “Ymin (6 h)” value (6 h) is reported as “B (50% ≤ Ymin < 70%)”. For the same compound, the “Ymin (24 h)” value (24 h) is reported as “B (50% ≤ Ymin < 70%)”. Besides, the DC50 runs as follows: (6 h, read-out: EC50 (6 h)) 1 to 10 µM; (24 h, read-out: EC50 (24 h)) below 0.1 µM.

With `Cc1c(OCCCC2CCN(CC3CCN(c4ccc5c(C6CCC(=O)NC6=O)nn(C)c5c4)CC3)CC2)cccc1-c1ccc(N2CCc3cccc(C(=O)Nc4nc5ccccc5s4)c3C2)nc1C(=O)O` (centres unmarked) [Compound 247, 6-[8-(1,3-benzothiazol-2-ylcarbamoyl)-3,4-dihydro-1H-isoquinolin-2-yl]-3-[3-[3-[1-[[1-[3-(2,6-dioxo-3-piperidyl)-1-methyl-indazol-6-yl]-4-piperidyl]methyl]-4-piperidyl]propoxy]-2-methyl-phenyl]pyridine-2-carboxylic acid], the “Ymin (24 h)” value (24 h) was “A (Ymin < 50%)”. Under “24 h, read-out: EC50 (24 h)”, the DC50 was below 0.1 µM.

Turning to `Cc1c(OCCC2CCN(CC3CCN(c4cccc5c(C6CCC(=O)NC6=O)nn(C)c45)CC3)CC2)cccc1-c1ccc(N2CCc3cccc(C(=O)Nc4nc5ccccc5s4)c3C2)nc1C(=O)O` (centres unmarked) [Compound 261, 6-[8-(1,3-benzothiazol-2-ylcarbamoyl)-3,4-dihydro-1H-isoquinolin-2-yl]-3-[3-[2-[1-[[1-[3-(2,6-dioxo-3-piperidyl)-1-methyl-indazol-7-yl]-4-piperidyl]methyl]-4-piperidyl]ethoxy]-2-methyl-phenyl]pyridine-2-carboxylic acid], the “Ymin (24 h)” value (24 h) is on record as “A (Ymin < 50%)”. Also, the DC50 (24 h, read-out: EC50 (24 h)) was below 0.1 µM.

`Cc1c(O[C@@H](C)CCC2CCN(CC(=O)Nc3cccc4c(C5CCC(=O)NC5=O)nn(C)c34)CC2)cccc1-c1ccc(N2CCc3cccc(C(=O)Nc4nc5ccccc5s4)c3C2)nc1C(=O)O` (stereo partly drawn) [Compound 169a, 6-[8-(1,3-benzothiazol-2-ylcarbamoyl)-3,4-dihydro-1H-isoquinolin-2-yl]-3-[3-[(1S)-3-[1-[2-[[3-(2,6-dioxo-3-piperidyl)-1-methyl-indazol-7-yl]amino]-2-oxo-ethyl]-4-piperidyl]-1-methyl-propoxy]-2-methyl-phenyl]pyridine-2-carboxylic acid]: under “6 h”, the “Ymin (6 h)” value was “B (50% ≤ Ymin < 70%)”. Moreover, under “24 h”, the “Ymin (24 h)” value is on record as “B (50% ≤ Ymin < 70%)”. In addition, the DC50 (6 h, read-out: EC50 (6 h)) fell in the range of 0.1 to 1 µM and the DC50 (24 h, read-out: EC50 (24 h)) is below 0.1 µM.

As for `Cc1c(O[C@H]2CC[C@H](CCCN3CCN(c4cccc5c(C6CCC(=O)NC6=O)nn(C)c45)C[C@H]3C)CC2)cccc1-c1ccc(N2CCc3cccc(C(=O)Nc4nc5ccccc5s4)c3C2)nc1C(=O)O` (stereo partly drawn) [Compound 275a, 6-(8-(benzo[d]thiazol-2-ylcarbamoyl)-3,4-dihydroisoquinolin-2(1H)-yl)-3-(3-(((1S,4r)-4-(3-((2R)-4-(3-(2,6-dioxopiperidin-3-yl)-1-methyl-1H-indazol-7-yl)-2-methylpiperazin-1-yl)propyl)cyclohexyl)oxy)-2-methylphenyl)picolinic acid], for the setting “24 h”, the “Ymin (24 h)” value is reported as “A (Ymin < 50%)”. Under “24 h, read-out: EC50 (24 h)”, the DC50 is below 0.1 µM.

In the case of `Cc1c(Oc2ccc(CCCCN3CCN(c4cccc5c(C6CCC(=O)NC6=O)nn(C)c45)CC3)cc2)cccc1-c1ccc(N2CCc3cccc(C(=O)Nc4nc5ccccc5s4)c3C2)nc1C(=O)O` (centres unmarked) [Compound 175, 6-(8-(benzo[d]thiazol-2-ylcarbamoyl)-3,4-dihydroisoquinolin-2(1H)-yl)-3-(3-(4-(4-(4-(3-(2,6-dioxopiperidin-3-yl)-1-methyl-1H-indazol-7-yl)piperazin-1-yl)butyl)phenoxy)-2-methylphenyl)picolinic acid], the “Ymin (24 h)” value (24 h) is “B (50% ≤ Ymin < 70%)”. Moreover, the DC50 (24 h, read-out: EC50 (24 h)) is below 0.1 µM.

`Cc1c(OCCC[C@@H]2CCN(CC(=O)Nc3ccc4c(C5CCC(=O)NC5=O)nn(C)c4c3)C2)cccc1-c1ccc(N2CCc3cccc(C(=O)Nc4nc5ccccc5s4)c3C2)nc1C(=O)O` (stereo partly drawn) [Compound 160a, 6-[8-(1,3-benzothiazol-2-ylcarbamoyl)-3,4-dihydro-1H-isoquinolin-2-yl]-3-[3-[3-[(3R)-1-[2-[[3-(2,6-dioxo-3-piperidyl)-1-methyl-indazol-6-yl]amino]-2-oxo-ethyl]pyrrolidin-3-yl]propoxy]-2-methyl-phenyl]pyridine-2-carboxylic acid]: the “Ymin (24 h)” value (24 h) is reported as “A (Ymin < 50%)”. Besides, the DC50 (24 h, read-out: EC50 (24 h)) is below 0.1 µM.

For `Cc1c(O[C@@H](C)CCC2CCN(CC(=O)Nc3ccc4c(C5CCC(=O)NC5=O)nn(C)c4c3)CC2)cccc1-c1ccc(N2CCc3cccc(C(=O)Nc4nc5ccccc5s4)c3C2)nc1C(=O)O` (some centres unmarked) [Compound 162a, 6-[8-(1,3-benzothiazol-2-ylcarbamoyl)-3,4-dihydro-H-isoquinolin-2-yl]-3-[3-[(1 S)-3-[1-[2-[[3-(2,6-dioxo-3-piperidyl)-1-methyl-indazol-6-yl]amino]-2-oxo-ethyl]-4-piperidyl]-1-methyl-propoxy]-2-methyl-phenyl]pyridine-2-carboxylic acid], under “6 h”, the “Ymin (6 h)” value is “B (50% ≤ Ymin < 70%)”. Under “24 h”, the “Ymin (24 h)” value is reported as “A (Ymin < 50%)”. In addition, the DC50 is, setting by setting: (6 h, read-out: EC50 (6 h)) below 0.1 µM; (24 h, read-out: EC50 (24 h)) below 0.1 µM.

For the compound `Cn1nc(C2CCC(=O)NC2=O)c2ccc(N3CCN(CCC[C@H]4CC[C@H](Oc5cccc(-c6ccc(N7CCc8cccc(C(=O)Nc9nc%10ccccc%10s9)c8C7)nc6C(=O)O)c5)CC4)CC3)cc21` (some centres unmarked) [Compound 330a, 6-(8-(benzo[d]thiazol-2-ylcarbamoyl)-3,4-dihydroisoquinolin-2(1H)-yl)-3-(3-(((1s,4r)-4-(3-(4-(3-(2,6-dioxopiperidin-3-yl)-1-methyl-1H-indazol-6-yl)piperazin-1-yl)propyl)cyclohexyl)oxy)phenyl)picolinic acid], the “Ymin (24 h)” value (24 h) is given as “A (Ymin < 50%)”. In addition, under “24 h, read-out: EC50 (24 h)”, the DC50 is below 0.1 µM.

With `Cc1c(OCCC2CCN(CC3CCN(c4ccc5c(C6CCC(=O)NC6=O)nn(C)c5c4)CC3)CC2)cccc1-c1ccc(N2CCc3cccc(C(=O)Nc4nc5ccccc5s4)c3C2)nc1C(=O)O` (centres unmarked) [Compound 258, 6-[8-(1,3-benzothiazol-2-ylcarbamoyl)-3,4-dihydro-1H-isoquinolin-2-yl]-3-[3-[2-[1-[[1-[3-(2,6-dioxo-3-piperidyl)-1-methyl-indazol-6-yl]-4-piperidyl]methyl]-4-piperidyl]ethoxy]-2-methyl-phenyl]pyridine-2-carboxylic acid], the “Ymin (24 h)” value (24 h) is listed as “A (Ymin < 50%)”. For the setting “24 h, read-out: EC50 (24 h)”, the DC50 was below 0.1 µM.

For `Cc1c(OCCCC2CCN(CC(=O)Nc3cccc4c(C5CCC(=O)NC5=O)nn(C)c34)CC2)cccc1-c1ccc(N2CCc3cccc(C(=O)Nc4nc5ccccc5s4)c3C2)nc1C(=O)O` (centres unmarked) [Compound 158, 6-(8-(benzo[d]thiazol-2-ylcarbamoyl)-3,4-dihydroisoquinolin-2(1H)-yl)-3-(3-(3-(1-(2-((3-(2,6-dioxopiperidin-3-yl)-1-methyl-1H-indazol-7-yl)amino)-2-oxoethyl)piperidin-4-yl)propoxy)-2-methylphenyl)picolinic acid], where the note is “6 h”, the “Ymin (6 h)” value is recorded as “C (Ymin ≥ 70%)”. Besides, the “Ymin (24 h)” value (24 h) is on record as “B (50% ≤ Ymin < 70%)”. Besides, the DC50 (6 h, read-out: EC50 (6 h)) is below 0.1 µM and the DC50 (24 h, read-out: EC50 (24 h)) was 0.1 to 1 µM.

With `Cc1cc(OC[C@@H](C)CC2CCN(CC(=O)Nc3ccc4c(C5CCC(=O)NC5=O)nn(C)c4c3)CC2)ccc1-c1ccc(N2CCc3cccc(C(=O)Nc4nc5ccccc5s4)c3C2)nc1C(=O)O` (stereo in doubt) [Compound 271b, 6-(8-(benzo[d]thiazol-2-ylcarbamoyl)-3,4-dihydroisoquinolin-2(1H)-yl)-3-(4-((2S)-3-(1-(2-((3-(2,6-dioxopiperidin-3-yl)-1-methyl-1H-indazol-6-yl)amino)-2-oxoethyl)piperidin-4-yl)-2-methylpropoxy)-2-methylphenyl)picolinic acid], the “Ymin (24 h)” value (24 h) was “C (Ymin ≥ 70%)”. For the same compound, where the note is “24 h, read-out: EC50 (24 h)”, the DC50 was below 0.1 µM.
